# Numbering of substitutions follows the chain as printed. Names may count otherwise.
# T1: bmGSTT (Bombyx mori, UniProt B0LB14, E66A)
# T1 construct: cDNA from larval fat body; primers encode N-terminal MVLKLYYD and C-terminal AANSKL
# T1 sequence (B0LB14 1-229 E66A): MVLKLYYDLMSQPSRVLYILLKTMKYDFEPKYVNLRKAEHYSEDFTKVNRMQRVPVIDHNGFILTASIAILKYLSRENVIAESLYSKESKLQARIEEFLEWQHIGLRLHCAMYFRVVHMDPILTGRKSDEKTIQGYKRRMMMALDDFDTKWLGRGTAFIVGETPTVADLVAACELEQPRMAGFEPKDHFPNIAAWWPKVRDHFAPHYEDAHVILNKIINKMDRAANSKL
# T2: bmGSTT (Bombyx mori, UniProt B0LB14, H40A)
# T2 construct: cDNA from larval fat body; primers encode N-terminal MVLKLYYD and C-terminal AANSKL
# T2 sequence (B0LB14 1-229 H40A): T1 sequence (B0LB14 1-229 E66A) with H40A, A66E
# T3: bmGSTT (Bombyx mori, UniProt B0LB14, R107A)
# T3 construct: cDNA from larval fat body; primers encode N-terminal MVLKLYYD and C-terminal AANSKL
# T3 sequence (B0LB14 1-229 R107A): T1 sequence (B0LB14 1-229 E66A) with A66E, R107A
# T4: bmGSTT (Bombyx mori, UniProt B0LB14)
# T4 construct: cDNA from larval fat body; primers encode N-terminal MVLKLYYD and C-terminal AANSKL
# T4 sequence (B0LB14 1-229): T1 sequence (B0LB14 1-229 E66A) with A66E
# B1: bmGSTT (Bombyx mori; H40A) (protein)
# chain: T1 sequence (B0LB14 1-229 E66A) with H40A, A66E
# B2: bmGSTT (Bombyx mori; R107A) (protein)
# chain: T1 sequence (B0LB14 1-229 E66A) with A66E, R107A
# B3: bmGSTT (Bombyx mori) (protein)
# chain: T1 sequence (B0LB14 1-229 E66A) with A66E
# B4: bmGSTT (Bombyx mori; V54A) (protein)
# chain: T1 sequence (B0LB14 1-229 E66A) with V54A, A66E
# Key:
# bmGSTT [1] = target: T1, bmGSTT; test: spectrophotometric GST assay, […] nm; format: biochemical; conditions: 5 mM GSH; read-out: bmGSTT mutants / E66A
# bmGSTT [2] = target: T2, bmGSTT; test: spectrophotometric GST assay, […] nm; format: biochemical; conditions: 5 mM GSH; read-out: bmGSTT mutants / H40A
# bmGSTT [3] = target: T3, bmGSTT; test: spectrophotometric GST assay, […] nm; format: biochemical; conditions: 5 mM GSH; read-out: bmGSTT mutants / R107A
# bmGSTT [4] = target: T4, bmGSTT; test: spectrophotometric GST assay, […] nm; format: biochemical; conditions: 5 mM GSH; Table 1 activity at pH 8; read-out: WT
# purified protein = substrate: O=[N+]([O-])c1ccc(CCBr)cc1; test: purified protein; conditions: 5 mM GSH
molecule,measurement,setting,value
"O=[N+]([O-])c1ccc(Cl)c([N+](=O)[O-])c1 [CDNB, 1-chloro-2,4-dinitrobenzene]",Km,bmGSTT [1],12000 µM
same,Km,bmGSTT [2],520 µM
same,Km,bmGSTT [3],960 µM
same,Km,bmGSTT [4],1500 µM
B1,Km,purified protein,2.3 (0.22) mM
B2,Km,purified protein,0.52 (0.071) mM
B3,Km,purified protein; Table 1 activity at pH 8,0.13 (0.03) mM
B4,Km,purified protein,0.50 (0.083) mM

# Source: article PMC4029803, “Glutathione-Binding Site of a Bombyx mori Theta-Class Glutathione Transferase” (PLoS ONE, 2014)
